The record followed here is DBAASP.

What all share (assay): ≥ marks a high value that may be exact or a test limit, other limits are often not marked, values filed in µg/mL are converted to µM
The test system of test [1] is Candida albicans ATCC 90028.
The test system of test [2] is Escherichia coli ATCC 25922.
Test [3] relates to Staphylococcus aureus NCTC 8325.
In test [4] the test system is Escherichia coli B.
For test [5], the system named is Bacillus subtilis 168.
For test [6], the system named is Pseudomonas aeruginosa.
Test [7] relates to Staphylococcus aureus.
For test [8], the system named is Bacillus subtilis ATCC 23857.
Test [9] deals with Salmonella enterica subsp. enterica serovar Typhimurium ATCC 14028.
Test [10] deals with Staphylococcus aureus ATCC 25923.
The test system of test [11] is Staphylococcus epidermidis ATCC 12228.
The test system of test [12] is Pseudomonas aeruginosa ATCC 27853.
Test [13] has as its system Staphylococcus aureus ATCC 29213.
The subject of test [14] is Salmonella enterica subsp. enterica serovar Typhimurium C77-31.
The test system of test [15] is Staphylococcus aureus ATCC 43300.
In test [16] the test system is Escherichia coli UB1005.
In test [17] the test system is Staphylococcus aureus NCTC 10788.

≈ marks a conversion by molar mass, not a printed value.

For `CC[C@H](C)[C@H](NC(=O)[C@H](CC(C)C)NC(=O)[C@H](CC(C)C)NC(=O)[C@H](CC(N)=O)NC(=O)[C@H](CCCCN)NC(=O)[C@@H](NC(=O)[C@@H](NC(=O)CNC(=O)[C@H](CC(C)C)NC(=O)[C@@H](NC(=O)CN)C(C)C)[C@@H](C)O)C(C)C)C(=O)NCC(=O)N[C@@H](C)C(=O)NCC(=O)N[C@@H](CCCCN)C(=O)N[C@@H](CO)C(=O)N[C@@H](C)C(=O)N[C@@H](C)C(=O)N[C@@H](CCC(N)=O)C(=O)N[C@@H](CO)C(=O)N[C@H](C(=O)N[C@@H](CC(C)C)C(=O)N[C@@H](CCCCN)C(=O)N[C@H](C(=O)N[C@@H](CC(C)C)C(=O)N[C@@H](CO)C(=O)N[C@H]1CSSC[C@@H](C(=O)O)NC(=O)[C@H](CC(=O)O)NC(=O)[C@H](CC(N)=O)NC(=O)[C@H](CO)NC(=O)[C@H](CC(C)C)NC(=O)[C@H](CCCCN)NC1=O)[C@@H](C)O)C(C)C` [GVLGTVKNLLIGAGKSAAQSVLKTLSCKLSNDC], the MIC (as a rule, the lowest concentration found to suppress growth) in [1] was at least 100 µM; in test [2] it was 6 µM (≈ 19.7 µg/mL); in test [3] it was 25 µM (≈ 82.2 µg/mL).

Take `CC[C@H](C)[C@H](NC(=O)[C@H](Cc1cnc[nH]1)NC(=O)[C@H](CCCCN)NC(=O)[C@H](CC(C)C)NC(=O)[C@H](CC(C)C)NC(=O)[C@H](CO)NC(=O)[C@H](CCCCN)NC(=O)[C@H](Cc1c[nH]c2ccccc12)NC(=O)[C@H](CCCCN)NC(=O)CN)C(=O)N[C@@H](CC(C)C)C(=O)N[C@@H](CCCCN)C(N)=O` [GKWKSLLKHILK]: the MIC in [4] turned out to be 3.7 µM (≈ 5.36 µg/mL); in test [5], 1.2 µM (≈ 1.74 µg/mL); in test [6] it was 34.2 µM (≈ 49.6 µg/mL); in test [7], 20 µM (≈ 29 µg/mL).

Consider `CC[C@H](C)[C@H](N)C(=O)N[C@@H](CC(C)C)C(=O)N1CCC[C@H]1C(=O)N[C@H](C(=O)N[C@@H](CC(C)C)C(=O)NCC(=O)N[C@@H](CC(N)=O)C(=O)N[C@@H](CC(C)C)C(=O)N[C@@H](CC(C)C)C(=O)N[C@@H](CC(N)=O)C(=O)NCC(=O)N[C@@H](CC(C)C)C(=O)N[C@@H](CC(C)C)C(N)=O)[C@@H](C)CC` [ILPILGNLLNGLL], for which the MIC is at least 100 µM in test [1], above 100 µM in test [2] and at least 100 µM in [3].

Take `CC[C@H](C)[C@H](NC(=O)[C@H](CO)NC(=O)[C@H](CC(C)C)NC(=O)[C@H](Cc1ccccc1)NC(=O)CN)C(=O)N[C@@H](CC(C)C)C(=O)N[C@@H](CCCCN)C(=O)N[C@@H](CCCCN)C(=O)N[C@H](C(=O)N[C@@H](CC(C)C)C(=O)N[C@@H](CCCCN)C(=O)N[C@H](C(=O)N[C@@H](CCSC)C(=O)N[C@@H](C)C(=O)N[C@@H](Cc1cnc[nH]1)C(=O)N[C@@H](CCSC)C(=O)N[C@@H](CCCCN)C(N)=O)C(C)C)C(C)C` [GFLSILKKVLKVMAHMK]: the MIC in test [4] is 1.8 µM (≈ 3.5 µg/mL); in test [5] it was 0.9 µM (≈ 1.75 µg/mL); in [6], 27.5 µM (≈ 53.4 µg/mL); in test [7], 5 µM (≈ 9.71 µg/mL).

Take `CC[C@H](C)[C@H](NC(=O)CN)C(=O)N[C@@H](CCCN=C(N)N)C(=O)N[C@@H](CCCN=C(N)N)C(=O)NCC(=O)N[C@H](C(=O)N[C@@H](CCCN=C(N)N)C(=O)N[C@@H](CCCN=C(N)N)C(=O)N[C@H](C(=O)N[C@@H](CCCCN)C(=O)N[C@@H](CCCCN)C(=O)N[C@@H](CCCN=C(N)N)C(N)=O)[C@@H](C)CC)[C@@H](C)CC` [GIRRGIRRIKKR]: the minimum inhibitory concentration (MIC) was at least 128 µM in test [8] and above 128 µM in test [2].

For `CC[C@H](C)[C@@H]1NC(=O)[C@H](CC(C)C)NC(=O)[C@@H](NC(=O)[C@@H](NC(=O)[C@H](Cc2ccccc2)NC(=O)[C@H](CCCCN)NC(=O)[C@@H]2CCCN2C(=O)[C@@H](NC(=O)[C@H](CCSC)NC(=O)[C@H](CO)NC(=O)[C@H](C)NC(=O)[C@H](C)NC(=O)[C@H](CC(C)C)NC(=O)CNC(=O)[C@H](C)NC(=O)[C@H](CC(C)C)NC(=O)[C@H](CCSC)NC(=O)[C@@H]2CCCN2C(=O)[C@H](CC(C)C)NC(=O)[C@@H](N)Cc2ccccc2)C(C)C)C(C)C)CSSC[C@@H](C(=O)O)NC(=O)[C@H](CCCCN)NC(=O)[C@H](CCCCN)NC(=O)[C@H]([C@@H](C)O)NC1=O` [FLPMLAGLAASMVPKFVCLITKKC], the MIC was determined as 16 µM (≈ 41.3 µg/mL) in [2] and 8 µM (≈ 20.6 µg/mL) in [3].

For the compound `CC[C@H](C)[C@@H]1NC(=O)[C@H](CCCCN)NC(=O)[C@@H](NC(=O)[C@H](C)NC(=O)[C@@H](NC(=O)[C@H](CC(C)C)NC(=O)CNC(=O)[C@H](CC(C)C)NC(=O)CNC(=O)[C@@H](NC(=O)[C@H](CCCCN)NC(=O)CNC(=O)[C@H](CC(C)C)NC(=O)[C@H](CC(N)=O)NC(=O)[C@H](CCCCN)NC(=O)[C@H](CC(C)C)NC(=O)[C@@H](NC(=O)[C@H](CO)NC(=O)[C@H](CC(C)C)NC(=O)[C@H](CCSC)NC(=O)[C@@H](N)CO)C(C)C)C(C)C)C(C)C)CSSC[C@@H](C(=O)O)NC(=O)[C@H](CCC(N)=O)NC(=O)[C@H](CCCCN)NC(=O)[C@H](CC(N)=O)NC1=O` [SMLSVLKNLGKVGLGLVACKINKQC], the results for the MIC in test [1], in test [2] and in test [3] were at least 58 µM, 1.5 µM (≈ 3.92 µg/mL) and at least 55 µM, respectively.

On to `CC[C@H](C)[C@H](N)C(=O)N[C@@H](CCCN=C(N)N)C(=O)N[C@H](C(=O)N[C@@H](CCCN=C(N)N)C(=O)N1CCC[C@H]1C(=O)N[C@H](C(=O)N[C@@H](CCCN=C(N)N)C(=O)N[C@H](C(=O)N[C@@H](CCCN=C(N)N)C(=O)N1CCC[C@H]1C(=O)O)[C@@H](C)CC)[C@@H](C)CC)[C@@H](C)CC` [IRIRPIRIRP], for which the MIC in test [9] is above 128 µM; in test [10] it was above 128 µM; in test [11], above 128 µM; in [12], above 128 µM; in [13], above 128 µM; in test [14], at least 128 µM. In addition, the MIC in [2] is above 128 µM; in test [15] it was above 128 µM; in [16], at least 128 µM.

In the case of `CC[C@H](C)[C@H](NC(=O)[C@H](Cc1cnc[nH]1)NC(=O)[C@H](CCCCN)NC(=O)[C@H](CC(C)C)NC(=O)[C@H](CC(C)C)NC(=O)[C@H](CO)NC(=O)[C@H](CCC(N)=O)NC(=O)[C@H](Cc1c[nH]c2ccccc12)NC(=O)[C@H](CCCCN)NC(=O)CN)C(=O)N[C@@H](CC(C)C)C(=O)N[C@@H](CCCCN)C(N)=O` [GKWQSLLKHILK], the MIC in test [4] came out at 8 µM (≈ 11.6 µg/mL); in [5], 2.2 µM (≈ 3.19 µg/mL); in test [6], 56.7 µM (≈ 82.2 µg/mL); in test [7], 25 µM (≈ 36.2 µg/mL).

Take `CC[C@H](C)[C@H](NC(=O)CN)C(=O)N[C@@H](CCCN=C(N)N)C(=O)N[C@@H](CCCN=C(N)N)C(=O)NCC(=O)N[C@H](C(=O)N[C@H](C(=O)N[C@@H](CCCN=C(N)N)C(=O)N[C@H](C(=O)N[C@H](C(=O)N[C@@H](CCCCN)C(=O)N[C@@H](CCCN=C(N)N)C(N)=O)[C@@H](C)CC)[C@@H](C)CC)[C@@H](C)CC)[C@@H](C)CC` [GIRRGIIRIIKR]: the MIC was found to be 16 µM (≈ 23.2 µg/mL) in test [8] and 64 µM (≈ 92.8 µg/mL) in test [2].

Take `CC[C@H](C)[C@H](NC(=O)[C@H](Cc1cnc[nH]1)NC(=O)[C@H](CCCCN)NC(=O)[C@H](CC(C)C)NC(=O)[C@H](Cc1c[nH]c2ccccc12)NC(=O)[C@H](CO)NC(=O)[C@H](CCSC)NC(=O)[C@H](Cc1c[nH]c2ccccc12)NC(=O)[C@H](CCCCN)NC(=O)CN)C(=O)N[C@@H](CC(C)C)C(=O)N[C@@H](CCCCN)C(N)=O` [GKWMSWLKHILK]: the MIC is 3.9 µM (≈ 5.95 µg/mL) in [4], 1.5 µM (≈ 2.29 µg/mL) in test [5], 13.5 µM (≈ 20.6 µg/mL) in test [6] and 10.1 µM (≈ 15.4 µg/mL) in test [7].

Turning to `CC[C@H](C)[C@H](NC(=O)CN)C(=O)N[C@@H](Cc1c[nH]c2ccccc12)C(=O)N[C@@H](CC(=O)O)C(=O)N[C@H](C(=O)N[C@@H](CC(C)C)C(=O)N[C@@H](CCCCN)C(=O)N[C@@H](CC(N)=O)C(=O)N[C@H](C(=O)NCC(=O)N[C@@H](CCCCN)C(=O)N[C@@H](C)C(=O)N[C@H](C(=O)N[C@@H](CC(C)C)C(=O)NCC(=O)N[C@@H](CCCCN)C(=O)N[C@H](C(=O)N[C@@H](CC(C)C)C(=O)N[C@@H](CCC(=O)O)C(=O)N[C@@H](CC(N)=O)C(=O)N[C@H](C(N)=O)C(C)C)C(C)C)C(C)C)C(C)C)[C@@H](C)O` [GIWDTLKNVGKAVLGKVLENV], the MIC in test [2] is 12.5 µM (≈ 28.2 µg/mL); in test [3] it was at least 50 µM.

In the case of `CC(C)C[C@H](NC(=O)[C@H](CC(C)C)NC(=O)CNC(=O)CNC(=O)[C@H](CC(C)C)NC(=O)[C@H](CC(C)C)NC(=O)CNC(=O)[C@H](CC(C)C)NC(=O)[C@@H](N)Cc1ccccc1)C(N)=O` [FLGLLGGLL], in [17], the MIC was at least 284 µM.

In the case of `CC[C@H](C)[C@H](NC(=O)CNC(=O)[C@H](CO)NC(=O)[C@H](CC(C)C)NC(=O)[C@H](CC(C)C)NC(=O)[C@H](CCCCN)NC(=O)CNC(=O)[C@@H](NC(=O)[C@@H](NC(=O)[C@@H]1CCCN1C(=O)[C@H](CC(C)C)NC(=O)[C@@H](NC(=O)[C@@H](NC(=O)[C@@H]1CCCN1C(=O)[C@H](CC(C)C)NC(=O)[C@@H](N)Cc1ccccc1)C(C)C)[C@@H](C)CC)C(C)C)[C@@H](C)CC)C(=O)N[C@@H](CC(C)C)C(N)=O` [FLPVILPVIGKLLSGIL], the MIC in test [2] was above 50 µM; in [3], 25 µM (≈ 44.8 µg/mL).
